Values quoted from earlier work in paper PMC5464344, “Analgesic and anti‐inflammatory properties of novel, selective, and potent EP4 receptor antagonists” (Pharmacology Research & Perspectives, 2017).

System: male Lewis rats, adjuvant induced arthritis
Set-up: method as in Blanco et al. 2016b
Details: results published previously, ref Blanco et al. 2016b; cited from earlier work

Structure (SMILES): Cc1ccc(N2CCC(O)CC2)nc1C(=O)Nc1c(C)cc(C(=O)O)cc1C [Compound 1]
- efficacy in rat AIA model of inflammation: effective
